Laboratory results reported in patent US11459339B2, “Biaryl derivative, preparation method thereof and pharmaceutical application thereof” (Abbisko Therapeutics Co., Ltd., priority 2018, dated 2022).

Tests used:
[1] = target: interaction between PD-1 and PD-L1 expressed on cell surfaces (Homo sapiens (Human), UniProt Q9NZQ7); assay: Jurkat reporter gene cellular assay (Jurkat/NF-κB-luc/PD1 cells cocultured with Raji-PD-L1 cells, OKT-3 stimulation); assay type: cell-based; conditions: NF-κB-luc reporter activation fold, 6 hrs; read-out: Cell Activity EC50
Chain of interaction between PD-1 and PD-L1 expressed on cell surfaces (Q9NZQ7 19-290): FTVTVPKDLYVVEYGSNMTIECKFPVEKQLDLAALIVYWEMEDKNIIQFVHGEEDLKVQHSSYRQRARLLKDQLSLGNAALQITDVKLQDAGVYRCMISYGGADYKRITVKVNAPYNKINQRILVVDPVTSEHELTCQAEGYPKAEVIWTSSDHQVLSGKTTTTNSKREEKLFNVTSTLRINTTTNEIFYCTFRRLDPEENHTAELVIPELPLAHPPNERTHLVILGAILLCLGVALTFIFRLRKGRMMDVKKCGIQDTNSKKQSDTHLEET
Experimental: B. Jurkat Reporter Gene Cellular Assay
The effect of compounds of the examples of the present invention and positive compounds on the interaction between PD-1 and PD-L1 expressed on cell surfaces, and the related influence on T cell functions, were determined by a Jurkat reporter gene cellular assay.
Briefly, the reporter gene plasmid of NF-κB-luc and the plasmid of human PD-1 were transfected into Jurkat cells to establish a stably transfected cell line capable of stably expressing both PD-1 and NF-κB-Luc reporter genes; the expression level of PD-1 on the cell surface was confirmed by flow cytometry: and the expression of the reporter gene was confirmed via the response of the reporter gene stimulated by OKT-3 and Raiji cells.
In addition, the plasmid of human PD-L1 was transfected into Raji cells to obtain a cell line capable of stably expressing PD-L1. Jurkat/NF-κB-luc/PD1 cells and Raji-PD-L1 cells were then cocultured and stimulated with OKT-3. On this basis, the compounds were added, and the enhancement of the signal pathway of T cell activation by the inhibitory effect of the compounds on the interaction between PD-1 and PD-L1 was evaluated by readings of reporter gene responses. The specific experimental process was as follows:
2. 20 μL of Raji-PD-L1 cell suspension was added to each well with 5*10^4 cells for each well, and was incubated in an incubator for 20 min;
3. 20 μL of Jurkat/NF-κb-luc/PD-1 cell suspension was added to each well with 5*10^4 cells for each well, and well mixed, and 6 hrs later, Bright-glo (Promega, E2620) was applied and plates were read on Envision;
4. the reading of each well treated with the compound was compared with the reading of each well treated with DMSO to obtain the activation fold of the compound; and
5. EC50 values of compounds and positive compounds of the examples of the present invention were determined by non-linear regression analysis of activation folds at different compound concentrations.

[2] = target: interaction between PD-1 and PD-L1 (Homo sapiens (Human), UniProt Q9NZQ7); assay: PD1-PDL1 HTRF binding activity test (Cisbio PD-1/PD-L1 binding assay kit); conditions: read-out: PD1-PDL1 HTRF Binding Activity IC50
Chain of interaction between PD-1 and PD-L1 (Q9NZQ7 19-238): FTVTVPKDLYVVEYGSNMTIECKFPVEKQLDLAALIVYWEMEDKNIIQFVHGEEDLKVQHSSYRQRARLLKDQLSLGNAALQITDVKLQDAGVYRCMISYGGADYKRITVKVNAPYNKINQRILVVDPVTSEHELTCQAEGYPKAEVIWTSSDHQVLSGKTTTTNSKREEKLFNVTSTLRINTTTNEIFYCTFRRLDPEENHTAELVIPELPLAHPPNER
Experimental: A. PD1-PDL1 HTRF Binding Activity Test
The effect of compounds and positive compounds of the examples of the present invention on the interaction between PD-1 and PD-L1 was determined by the PD-1/PD-L1 binding assay kit from Cisbio (#64ICP01PEG or 64ICP01PEH). The detailed experimental process was as follows:
1. Pre-diluted compound solution, 4 μL of Tag1-PD-L1 and 4 μL of Tag2-PD1 were added to each well of a 384-well plate;
3. After incubated for 2 hrs at room temperature or overnight at 4° C., plates were read on Envision of Pelkin Elmer; and readings at 665 nm and 620 nm were recorded, and the ratio of the two readings was taken as a reading for each well;
4. The reading of each well after compound treatment was compared with the reading of DMSO treated wells to obtain the percent inhibition of the compound; and
5. IC50 values of compounds and positive compounds of the examples of the present invention were determined by non-linear regression analysis of percent inhibition at different compound concentrations.

Row | Structure (SMILES) | EC50 [1] [nM] | IC50 [2] [nM]
1 | COc1cc(C(=O)Nc2cccc(-c3cccc(NC(=O)c4cc(OC)c(CN[C@H](CO)C(=O)O)cn4)c3C)c2C)ncc1CN[C@H](CO)C(=O)O [Example 2, (2R,2′R)-2,2′-((((((2,2′-dimethyl-[1,1′-biphenyl]-3,3′-diyl)bis (azanediyl))bis(carbonyl))bis(4-methoxypyridine-6,3-diyl))bis(methylene))bis (azanediyl))bis(3-hydroxypropanoic acid)] | 109 | 0.18
2 | Cc1c(NC(=O)c2ccc(CN[C@H](CO)C(=O)O)cn2)cccc1-c1cccc(NC(=O)c2ccc(CN[C@H](CO)C(=O)O)cn2)c1C [Example 6, (2R,2′R)-2,2′-((((((2,2′-dimethyl[1,1′-biphenyl]-3,3′-diyl)bis(azanediyl))bis(carbonyl))bis(pyridine-6,3-diyl))bis(methylene))bis(azanediyl))bis (3-hydroxypropanoic acid)] | 658 | 0.79
3 | COCCNCc1cnc(C(=O)Nc2cccc(-c3cccc(NC(=O)c4cc(C)c(CNCCOC)cn4)c3C)c2C)cc1C [Example 7, N,N′-(2,2′-dimethyl-[1,1′-biphenyl]-3,3′-diyl)bis(5-(((2-methoxyethyl)amino)methyl)-4-methylpicolinamide)] | 139 | 0.096
4 | Cc1cc(C(=O)Nc2cccc(-c3cccc(NC(=O)c4cc(C)c(CN5CCOCC5)cn4)c3C)c2C)ncc1CN1CCOCC1 [Example 9, N,N′-(2,2′-dimethyl-[1,1′-biphenyl]-3,3′-diyl)bis(4-methyl-5-(morpholinomethyl)picolinamide)] | > 10000 | 3.8
5 | Cc1cc(C(=O)Nc2cccc(-c3cccc(NC(=O)c4cc(C)c(CNCC5(O)CC5)cn4)c3C)c2C)ncc1CNCC1(O)CC1 [Example 10, N,N′-(2,2′-dimethyl-[1,1′-biphenyl]-3,3′-diyl)bis(5-((((1-hydroxycyclopropyl)methyl)amino)methyl)-4-methylpicolinamide)] | 50 | 0.28
6 | Cc1cc(C(=O)Nc2cccc(-c3cccc(NC(=O)c4cc(C)c(CN5CC(C)(O)C5)cn4)c3C)c2C)ncc1CN1CC(C)(O)C1 [Example 11, N,N′-(2,2′-dimethyl-[1,1′-biphenyl]-3,3′-diyl)bis(5-((3-hydroxy-3-methylazetidin-1-yl)methyl)-4-methylpicolinamide)] | 134 | 0.6
7 | Cc1cc(C(=O)Nc2cccc(-c3cccc(NC(=O)c4cc(C)c(CN5CCCC5)cn4)c3C)c2C)ncc1CN1CCCC1 [Example 12, N,N′-(2,2′-dimethyl-[1,1′-biphenyl]-3,3′-diyl)bis(4-methyl-5-(pyrrolidin-1-ylmethyl)picolinamide)] | 594 | 1.9
8 | Cc1cc(C(=O)Nc2cccc(-c3cccc(NC(=O)c4cc(C)c(CN5CC[C@@H](O)C5)cn4)c3C)c2C)ncc1CN1CC[C@@H](O)C1 [Example 13, N,N′-(2,2′-dimethyl-[1,1′-biphenyl]-3,3′-diyl)bis(5-(((R)-3-hydroxypyrrolidin-1-yl)methyl)-4-methylpicolinamide)] | 109 | 0.13
9 | Cc1cc(C(=O)Nc2cccc(-c3cccc(NC(=O)c4cc(C)c(CN5CCC(F)(F)C5)cn4)c3C)c2C)ncc1CN1CCC(F)(F)C1 [Example 14, N,N′-(2,2′-dimethyl-[1,1′-biphenyl]-3,3′-diyl)bis(5-((3,3-difluoropyrrolidin-1-yl)methyl)-4-methylpicolinamide)] | – | 227
10 | Cc1cc(C(=O)Nc2cccc(-c3cccc(NC(=O)c4cc(C)c(CNC5CC5)cn4)c3C)c2C)ncc1CNC1CC1 [Example 15, N,N′-(2,2′-dimethyl-[1,1′-biphenyl]-3,3′-diyl)bis(5-((cyclopropylamino)methyl)-4-methyipicolinamide)] | 511 | 0.83
11 | CC(=O)NCCNCc1cnc(C(=O)Nc2cccc(-c3cccc(NC(=O)c4cc(C)c(CNCCNC(C)=O)cn4)c3C)c2C)cc1C [Example 16, N,N′-(2,2′-dimethyl-[1,1′-biphenyl]-3,3′-diyl)bis(5-(((2-acetamidoethyl)amino)methyl)-4-methylpicolinamide)] | 310 | 0.14
12 | Cc1cc(C(=O)Nc2cccc(-c3cccc(NC(=O)c4cc(C)c(CN5CCNC(=O)C5)cn4)c3C)c2C)ncc1CN1CCNC(=O)C1 [Example 17, N,N′-(2,2′-dimethyl-[1,1′-biphenyl]-3,3′-diyl)bis(4-methyl-5-((3-oxopiperazin-1-yl)methyl)picolinamide)] | > 10000 | 1.5
13 | Cc1cc(C(=O)Nc2cccc(-c3cccc(NC(=O)c4cc(C)c(CN[C@@H]5CCOC[C@H]5O)cn4)c3C)c2C)ncc1CN[C@@H]1CCOC[C@H]1O [Example 18, N,N′-(2,2′-dimethyl-[1,1′-biphenyl]-3,3′-diyl)bis(5-((((3S,4R)-3-hydroxytetrahydro-2H-pyran-4-yl)amino)methyl)-4-methylpicolinamide)] | 209 | 0.34
14 | Cc1cc(C(=O)Nc2cccc(-c3cccc(NC(=O)c4cc(C)c(CN[C@H]5CC[C@H](O)CC5)cn4)c3C)c2C)ncc1CN[C@H]1CC[C@H](O)CC1 [Example 19, N,N′-(2,2′-dimethyl-[1,1′-biphenyl]-3,3′-diyl)bis(5-((((1r,4r)-4-hydroxycyclohexyl)amino)methyl)-4-methylpicolinamide)] | 86 | 0.15
15 | COC(=O)[C@@H](CO)NCc1cnc(C(=O)Nc2cccc(-c3cccc(NC(=O)c4cc(C)c(CN[C@H](CO)C(=O)OC)cn4)c3C)c2C)cc1C [Example 20, dimethyl 2,2′-((((((2,2′-dimethyl-[1,1′-biphenyl]-3,3′-diyl)bis (azanediyl))bis(carbonyl))bis(4-methylpyridine-6,3-diyl))bis(methylene))bis(azanediyl))(2R,2′R)-bis(3-hydroxypropanoate)] | 4220 | 0.36
16 | Cc1cc(C(=O)Nc2cccc(-c3cccc(NC(=O)c4cc(C)c(CN[C@H](CO)C(=O)O)cn4)c3C)c2C)ncc1CN[C@H](CO)C(=O)O [Example 21, (2R,2′R)-2,2′-((((((2,2′-dimethyl-[1,1′-biphenyl]-3,3′-diyl)bis(azanediyl))bis(carbonyl))bis(4-methylpyridine-6,3-diyl))bis(methylene))bis(azanediyl)) bis(3-hydroxypropaitoic acid)] | 83 | 0.66
17 | COC(=O)[C@H](CO)NCc1cnc(C(=O)Nc2cccc(-c3cccc(NC(=O)c4cc(C)c(CN[C@@H](CO)C(=O)OC)cn4)c3C)c2C)cc1C [Example 22, dimethyl 2,2′-((((((2,2′-dimethyl-[1,1′-biphenyl]-3,3′-diyl)bis(azanediyl))bis(carbonyl))bis(4-methylpyridine-6,3-diyl))bis(methylene))bis(azanediyl)) (2S,2′S)-bis(3-hydroxypropanoate)] | 5170 | 0.28
18 | Cc1cc(C(=O)Nc2cccc(-c3cccc(NC(=O)c4cc(C)c(CN[C@@H](CO)C(=O)O)cn4)c3C)c2C)ncc1CN[C@@H](CO)C(=O)O [Example 23, (2S,2′S)-2,2′-((((((2,2′-dimethyl-[1,1′-biphenyl]3,3′-diyl)bis(azanediyl))bis(carbonyl))bis(4-methylpyridine-6,3-diyl))bis(methylene))bis(azanediyl))bis (3-hydroxypropanoic acid)] | 249 | 0.31
19 | COC(=O)CNCc1cnc(C(=O)Nc2cccc(-c3cccc(NC(=O)c4cc(C)c(CNCC(=O)OC)cn4)c3C)c2C)cc1C [Example 24, dimethyl 2,2′-((((((2,2′-dimethyl-[1,1′-biphenyl]-3,3′-diyl)bis(azanediyl))bis(carbonyl))bis(4-methylpyridine-6,3-diyl))bis (methylene))bis(azanediyl))diacetate] | 1050 | 3.2
20 | Cc1cc(C(=O)Nc2cccc(-c3cccc(NC(=O)c4cc(C)c(CNCC(=O)O)cn4)c3C)c2C)ncc1CNCC(=O)O [Example 25] | 124 | 0.37
21 | COc1cc(C(=O)Nc2cccc(-c3cccc(NC(=O)c4cc(OC)c(CN5CC6(CCO6)C5)cn4)c3C)c2C)ncc1CN1CC2(CCO2)C1 [Example 57] | – | 0.36
